Data taken from article PMC6406907, “A H2AX–CARP-1 Interaction Regulates Apoptosis Signaling Following DNA Damage” (Cancers, 2019).
No end group written: not given here.

Tested on: endogenous CARP-1
Experiment: Anti-EGFP co-immunoprecipitation with endogenous CARP-1
Format: cell-based, human
Details: MDA-MB-468 stable subline, anti-EGFP IP, anti-CARP-1 (α2) WB; Figure 5D
Protocol: Logarithmically growing cells were either untreated or treated with different agents for various time periods. The cells were lysed to prepare protein extracts. IP was carried out by incubating approximately 1 mg of the protein lysate with appropriate antibodies. The immunoprecipitates were then analyzed by SDS-PAGE, followed by WB with respective, interacting protein. For Gst-pulldown, Gst-H2AX or various His-TAT-HA-tagged CARP-1 peptides were generated in Escherichia coli (E. coli) BL21 cells essentially as described by us previously. Briefly, the competent E. coli BL-21 (DE3) pLysS cells were transformed separately with various recombinant pGEX-4T-1 or pTAT-HA constructs. The transformed cells were then subjected to selection by combined presence of ampicillin and chloramphenicol; various isolates for each transformation were obtained and bacterial lysates were characterized for expression of fusion peptides. Cells from each isolate were grown in 4 mL of LB medium containing ampicillin only until the optical density (OD)600 reached 0.4–0.8. Expression of fusion peptides was induced over 2–4 h incubation periods after Isopropyl β-D-1-thiogalactopyranoside (IPTG) addition. […]
Figure 5 Fine Mapping of H2AX/CARP-1 interacting epitopes. […] Following stringent washing, the bound proteins were analyzed with WB using anti-HA (upper) or anti-Gst (middle) antibodies. […]

EGFP-H2AX (1–35): EGFP-tagged fusion protein stably expressed in MDA-MB-468 and HeLa sublines (MSGRGKTGGKARAKAKSRSSRAGLQFPVGRVHRLL; also: EGFP fusion, end not given here; UniProt P16104 1-35, looked up, fragment)
in-cell interaction with endogenous CARP-1: robust, in vivo interaction
